Experimental findings from patent US9668482B1, “Fused heterocyclic compound and pest control application thereof” (Sumitomo Chemical Company, Limited, priority 2014, dated 2017) are described below.

Structures are written as SMILES.

Format in all cases: in vivo
Series [1] concerns housefly (Musca domestica). Description: Test Example 8: housefly, treated filter paper with sucrose bait. The note with it: 500 ppm, 0.7 mL on filter paper, female adults, after 24 hours. The protocol: Each of the present compounds 1 to 3, 5, 7, 8, 11, 13 to 16, 21 and 22 was made to a formulation according to the Formulation example 5 and was then diluted with water so that the active ingredient concentration was set to 500 ppm to prepare the diluted solution. The bottom of the polyethylene cup having 5.5 cm diameter was matted with the same size of a filter paper, and 0.7 mL of the diluted solution was added dropwise to the filter paper and 30 mg sucrose as bait was placed in the cup uniformly. Ten (10) heads of female adult housefly (Musca domestica) were released into the polyethylene cup and the cup was covered with the lid. After 24 hours, the life and death of housefly was examined and the number of died insects was counted and the mortality of insects was calculated by the following equation. Mortality of insects (%)=(Number of dead insects/Number of tested insects)×100

For series [2], the system named is American cockroaches (Periplaneta americana). Description: Test Example 14: American cockroach, topical application, comparison with compound 112. The note with it: 1.0 μL topical, 7 days after treatment. The protocol: The compound 112 (hereinafter, referred to as “compound 112”), described in Table 40 of WO 2013/018928 pamphlet, and the present compound 1 were dissolved in acetone and then the acetone solutions of the designated concentration were prepared.
A droplet (1.0 μL) of the solution was topically applied onto the ventral prothorax of each female American cockroaches (Periplaneta americana). Then, the treated individuals were transferred to a clean polyethylene cup (bottom diameter: 12 cm, height: 10 cm) with some food and water. Each treatment consisted of 2 replications of 5 roaches/polyethylene cup. The mortality was determined on 7 days after treatment at 25° C. Mortality of insects (%)=(Number of dead insects/Number of tested insects)×100

In series [3] the test system is German cockroach (Blattella germanica). In words: Test Example 9: German cockroach, treated filter paper with sucrose bait. As to conditions: 500 ppm, 0.7 mL on filter paper, male adults, after 6 days. The protocol:
Each of the present compounds 1 to 3, 5, 7, and 13 was made to a formulation according to the Formulation example 5 and was then diluted with water so that the active ingredient concentration was set to 500 ppm to prepare the diluted solution. The bottom of the polyethylene cup having 5.5 cm diameter was matted with the same size of a filter paper, and 0.7 mL of the diluted solution was added dropwise to the filter paper and 30 mg sucrose as bait was placed in the cup uniformly. Two (2) heads of male adult German cockroach (Blattella germanica) were released into the polyethylene cup and the cup was covered with the lid. After 6 days, the life and death of German cockroach was examined and the number of died insects was counted and the mortality of insects was calculated by the following equation. Mortality of insects (%)=(Number of dead insects/Number of tested insects)×100

Series [4] deals with American cockroaches (Periplaneta americana). In words: Test Example 13: American cockroach, topical application of 10% w/v acetone solution. The note with it: 1.0 μL topical on ventral prothorax, females, 7 days, 25° C. The procedure:
The present compounds 1 and 2 were dissolved in acetone and then the 10% w/v acetone solutions were prepared.
A droplet (1.0 μL) of the solution was topically applied onto the ventral prothorax of each female American cockroaches (Periplaneta americana). Then, the treated individuals were transferred to a clean polyethylene cup (bottom diameter: 12 cm, height: 10 cm) with some food and water. Each treatment consisted of 2 replications of 5 cockroaches/polyethylene cup. The mortality was determined on 7 days after treatment at 25° C. Mortality of insects (%)=(Number of dead insects/Number of tested insects)×100

In series [1], `CCS(=O)(=O)c1ccc(-n2cnc(C(=O)OC)n2)nc1-c1nc2cc(C(F)(F)F)cnc2n1C` [compound 11] displayed a Mortality of insects of 100%.

The molecule `CCS(=O)(=O)c1ccc(-n2cnc(S(C)(=O)=O)n2)nc1-c1nc2cc(C(F)(F)F)cnc2n1C` [compound 8] came in with a Mortality of insects in series [1] of 100%. On to `CCS(=O)(=O)c1cc(-c2ncccn2)cnc1-c1nc2cc(C(F)(F)F)cnc2n1C` [Compound 112], for which the “Morality (%)” value in series [2] (concentration 2 w/v%) came out at 70%; in series [2] (concentration 4 w/v%) it was 100%.

For the molecule `CCS(=O)(=O)c1ccc(-n2cnc(C(F)(F)F)n2)nc1-c1nc2cc(C(F)(F)F)cnc2n1C` [compound 5], the Mortality of insects in series [1] and in series [3] was 100% in each case.

In series [3], `CCSc1ccc(-n2cncn2)nc1-c1nc2cc(C(F)(F)F)cnc2n1C` [compound 13] had a Mortality of insects of 100%.

For the molecule `CC[S+]([O-])c1ccc(-n2cnc(SC)n2)nc1-c1nc2cc(C(F)(F)F)cnc2n1C` (stereo not drawn) [compound 22], the Mortality of insects in series [1] is reported as 100%. For `CCS(=O)(=O)c1ccc(-n2cnc(Cl)n2)nc1-c1nc2cc(C(F)(F)F)cnc2n1C` [compound 2], the Mortality of insects in series [4] was 100%. As to `CC[S+]([O-])c1ccc(-n2cnc(C(F)(F)F)n2)nc1-c1nc2cc(C(F)(F)F)cnc2n1C` (stereo not drawn) [compound 21], in series [1], the Mortality of insects is reported as 100%. For `CCS(=O)(=O)c1ccc(-n2cnc(SC)n2)nc1-c1nc2cc(C(F)(F)F)cnc2n1C` [compound 7], the Mortality of insects in series [1] and in series [3] was 100% throughout.
